Reference: paper PMC6773864, “The functional ClpXP protease of Chlamydia trachomatis requires distinct clpP genes from separate genetic loci” (Scientific Reports, 2019)
*1 amine or outer side, *2 acyl side, *3 side chain or, on linkers, in order; H or OH if unused. Where a SMILES comes first, the peptide text is derived from it. The star is where a group is joined. AMC = Cc1cc(=O)oc2cc(N*)ccc12; Suc = O=C(CCC(=O)[*:2])[*:1]

Assays:
ctClpP1P2 [1] = target: T1, ctClpP1P2 (Chlamydia trachomatis, UniProt O84712+P38002); test: peptidase assay, fluorescence (AMC release); assay type: biochemical; details: 100 µM substrate, 3 µM ClpP, no ADEP1, pH 7.6, 32 °C
T1 construct: gene clpP1; full-length, C-terminal Strep-tag on both (kept), expressed in E. coli dAPX-1 (clpP/clpX/clpA deleted), mixed 1:1; hetero-tetradecamer

ctClpP1P2 [2] = target: T1, ctClpP1P2; test: Suc-LY-AMC peptidase assay, fluorescence (AMC release); assay type: biochemical; details: activator; 15 µM ADEP1, 3 µM ClpP, 100 µM Suc-LY-AMC, no ClpX, pH 7.6, 32 °C; binds preferably via ClpP2 hydrophobic pocket

T1 sequence (P38002 2-192): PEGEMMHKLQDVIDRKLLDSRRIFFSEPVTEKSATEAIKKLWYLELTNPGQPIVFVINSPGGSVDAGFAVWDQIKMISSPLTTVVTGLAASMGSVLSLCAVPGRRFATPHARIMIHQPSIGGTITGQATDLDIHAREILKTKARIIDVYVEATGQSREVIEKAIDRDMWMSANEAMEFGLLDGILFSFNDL
T1 sequence (O84712 whole entry): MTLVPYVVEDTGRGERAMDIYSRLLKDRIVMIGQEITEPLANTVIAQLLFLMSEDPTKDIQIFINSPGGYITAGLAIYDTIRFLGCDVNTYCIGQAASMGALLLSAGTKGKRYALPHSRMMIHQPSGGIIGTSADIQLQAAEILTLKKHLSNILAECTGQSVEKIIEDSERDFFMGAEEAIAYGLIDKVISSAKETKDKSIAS

Molecule: Cc1cc(=O)oc2cc(NC(=O)[C@H](Cc3ccc(O)cc3)NC(=O)[C@H](CC(C)C)NC(=O)CCC(=O)O)ccc12 [Suc-LY-AMC] (Suc-Leu-Tyr-{AMC})
- peptidase assay, fluorescence (AMC release) (ctClpP1P2 [1]): when combined, ctClpP1P2 steadily hydrolysed Suc-LY-AMC

Molecule: ADEP1
- fold increase in peptidase activity at 15 μM (ctClpP1P2 [2]): > 2.5 fold
